From US20240150360A1 (THE REGENTS OF THE UNIVERSITY OF MICHIGAN, priority 2021, published 2024)

Legend:
CBP = biological target: T1, CBP (Homo sapiens, UniProt Q92793); assay: CBP degradation in 22Rv1 cells (5 h); type: cell-based; details: 22Rv1 cells, 5 h; for Dmax: 22Rv1, 5 h, read-out: CBP Degradation (22Rv1, 5 h) DCmax
T1 construct: endogenous in cells; host or cells: 22Rv1 (ATCC CRL-2505) human prostate cancer cells
Description: Biological Assays. […] Cells with 3-8 passages after purchase were used in experiments.

22Rv1 cells = assay: Cell growth inhibition assay (CellTiter-Glo) in 22Rv1; type: cell-based, human; details: Homo sapiens, 22Rv1, 96 h, 22Rv1 cells, 96 h incubation; read-out: Cell Growth Inhibition (IC50) 22Rv1
Protocol: Biological Assays. CBP/p300 degradation activity and cell growth inhibition were evaluated in the human prostate cancer cell line 22Rv1 (ATCC© CRL-2505™) purchased from the American Type Culture Collection (ATCC), Manassas, VA, and maintained and cultured in Dulbecco's Modified Eagle's medium (DMEM) containing 10% fetal bovine serum, 1 unit/ml of penicillin and 1 μg/ml of streptomycin. Cells with 3-8 passages after purchase were used in experiments.
Cell Growth Inhibition Assay Protocol. 22RV1 cells were seeded at a concentration of 4000 cells/well in 100 μl culture medium and 2 μl of test compound (final concentration start from 10 μM and 3 times dilution) into 96 well microplates (Corning 3903). The cell cultures were incubated for 96 h at +37° C. and 5% CO2. The plate and its contents were equilibrated to room temperature for approximately 30 minutes. 100 μl of CellTiter-Glo® 2.0 Reagent equal to the volume of cell culture medium present was added in each well. The contents were mixed for 2 minutes on an orbital shaker. The plate was allowed to incubate at room temperature for 10 minutes. The luminescence was recorded. The data was analyzed by Prism GraphPad 8.

HL60 = assay: Cell growth inhibition in HL60; type: cell-based; details: Homo sapiens, HL-60, HL60 cells; read-out: Cell Growth Inhibition (IC50) HL60

T1 sequence (Q92793 whole entry): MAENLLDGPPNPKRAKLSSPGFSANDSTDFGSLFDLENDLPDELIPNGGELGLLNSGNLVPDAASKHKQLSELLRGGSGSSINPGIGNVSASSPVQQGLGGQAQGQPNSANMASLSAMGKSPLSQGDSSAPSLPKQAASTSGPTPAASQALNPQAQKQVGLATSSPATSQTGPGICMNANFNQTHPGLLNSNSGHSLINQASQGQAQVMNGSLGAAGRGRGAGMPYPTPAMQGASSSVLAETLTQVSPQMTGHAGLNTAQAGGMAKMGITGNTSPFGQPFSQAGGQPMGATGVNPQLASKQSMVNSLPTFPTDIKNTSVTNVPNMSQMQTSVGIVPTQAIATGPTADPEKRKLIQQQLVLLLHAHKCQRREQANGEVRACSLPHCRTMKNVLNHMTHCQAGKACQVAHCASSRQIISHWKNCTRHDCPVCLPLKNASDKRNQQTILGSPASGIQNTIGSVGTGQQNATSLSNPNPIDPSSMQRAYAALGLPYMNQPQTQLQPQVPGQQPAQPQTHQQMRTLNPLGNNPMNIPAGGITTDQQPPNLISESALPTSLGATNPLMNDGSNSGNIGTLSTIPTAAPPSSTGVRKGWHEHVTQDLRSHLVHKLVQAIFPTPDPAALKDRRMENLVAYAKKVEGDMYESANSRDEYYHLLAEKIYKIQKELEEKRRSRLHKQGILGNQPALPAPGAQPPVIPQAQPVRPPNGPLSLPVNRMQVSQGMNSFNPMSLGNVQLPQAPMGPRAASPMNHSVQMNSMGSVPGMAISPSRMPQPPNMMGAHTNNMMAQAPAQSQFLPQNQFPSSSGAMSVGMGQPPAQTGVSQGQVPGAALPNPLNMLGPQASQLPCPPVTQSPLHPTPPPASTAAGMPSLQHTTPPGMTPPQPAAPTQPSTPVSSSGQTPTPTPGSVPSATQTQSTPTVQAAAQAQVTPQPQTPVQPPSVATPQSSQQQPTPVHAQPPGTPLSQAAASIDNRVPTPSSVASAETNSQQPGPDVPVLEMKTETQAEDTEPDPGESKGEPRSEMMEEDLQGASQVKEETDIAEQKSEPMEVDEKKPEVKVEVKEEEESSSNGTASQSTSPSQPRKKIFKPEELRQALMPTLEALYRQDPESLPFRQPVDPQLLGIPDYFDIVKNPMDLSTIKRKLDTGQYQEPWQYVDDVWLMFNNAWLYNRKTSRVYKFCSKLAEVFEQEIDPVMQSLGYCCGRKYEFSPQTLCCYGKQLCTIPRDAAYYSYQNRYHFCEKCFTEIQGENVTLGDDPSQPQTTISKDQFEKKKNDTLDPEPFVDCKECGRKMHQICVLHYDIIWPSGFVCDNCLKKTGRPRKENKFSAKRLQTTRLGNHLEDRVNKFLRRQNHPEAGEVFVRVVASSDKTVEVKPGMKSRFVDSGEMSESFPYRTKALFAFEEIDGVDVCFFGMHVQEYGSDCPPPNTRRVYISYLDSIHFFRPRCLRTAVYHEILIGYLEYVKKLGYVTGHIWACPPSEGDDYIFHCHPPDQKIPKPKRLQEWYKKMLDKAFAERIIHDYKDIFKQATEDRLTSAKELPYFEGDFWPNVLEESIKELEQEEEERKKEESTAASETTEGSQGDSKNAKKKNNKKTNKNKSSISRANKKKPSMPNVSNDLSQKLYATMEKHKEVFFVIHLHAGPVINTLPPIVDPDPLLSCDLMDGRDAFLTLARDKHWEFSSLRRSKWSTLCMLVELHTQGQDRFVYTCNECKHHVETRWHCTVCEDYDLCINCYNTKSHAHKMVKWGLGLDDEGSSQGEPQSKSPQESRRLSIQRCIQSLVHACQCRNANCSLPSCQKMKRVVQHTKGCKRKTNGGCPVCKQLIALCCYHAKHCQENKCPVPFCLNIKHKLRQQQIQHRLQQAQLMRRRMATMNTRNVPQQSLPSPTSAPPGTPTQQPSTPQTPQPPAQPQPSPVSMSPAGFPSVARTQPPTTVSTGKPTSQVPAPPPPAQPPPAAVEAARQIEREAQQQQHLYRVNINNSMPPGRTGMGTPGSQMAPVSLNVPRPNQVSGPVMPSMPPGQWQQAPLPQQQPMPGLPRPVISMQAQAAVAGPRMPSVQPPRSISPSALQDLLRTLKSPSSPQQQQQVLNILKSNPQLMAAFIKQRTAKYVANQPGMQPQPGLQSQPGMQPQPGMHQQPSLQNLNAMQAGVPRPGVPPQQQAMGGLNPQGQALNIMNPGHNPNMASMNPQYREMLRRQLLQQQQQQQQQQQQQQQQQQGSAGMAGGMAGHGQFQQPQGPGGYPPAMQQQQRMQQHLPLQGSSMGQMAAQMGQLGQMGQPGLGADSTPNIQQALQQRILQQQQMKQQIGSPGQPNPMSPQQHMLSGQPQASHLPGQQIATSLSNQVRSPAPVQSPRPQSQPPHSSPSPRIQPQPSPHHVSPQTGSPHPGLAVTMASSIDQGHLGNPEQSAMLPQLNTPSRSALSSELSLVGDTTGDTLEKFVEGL

| Dmax (CBP) [%] | DC50 (CBP) [µM] | IC50 (22Rv1 cells) [µM] | IC50 (HL60) [µM] | SMILES |
| --- | --- | --- | --- | --- |
| > 90 | < 0.01 | < 0.1 | < 0.1 | CC(=O)N1CCc2c(c(N3CCCc4cc(-c5cnn(C)c5)c(C(F)F)cc43)nn2C2CCN(C(=O)CN3CCc4cc5c(cc4C3)C(=O)N(C3CCC(=O)NC3=O)C5=O)CC2)C1 (stereo not shown) [CP-001, 6-(2-(4-(5-acetyl-3-(7-(difluoromethyl)-6-(1-methyl-1H-pyrazol-4-yl)-3,4-dihydroquinolin-1(2H)-yl)-4,5,6,7-tetrahydro-1H-pyrazolo[4,3-c]pyridin-1-yl)piperidin-1-yl)-2-oxoethyl)-2-(2,6-dioxopiperidin-3-yl)-5,6,7,8-tetrahydro-1H-pyrrolo[3,4-g]isoquinoline-1,3(2H)-dione] |
| > 90 | < 0.01 | < 10 | < 1 | CC(=O)N1CCc2c(c(N3CCCc4cc(-c5cnn(C)c5)c(C(F)F)cc43)nn2C2CCN(CC(=O)N3CCc4cc5c(cc4C3)C(=O)N(C3CCC(=O)NC3=O)C5=O)CC2)C1 (stereo not shown) [CP-002, 6-(2-(4-(5-acetyl-3-(7-(difluoromethyl)-6-(1-methyl-1H-pyrazol-4-yl)-3,4-dihydroquinolin-1(2H)-yl)-4,5,6,7-tetrahydro-1H-pyrazolo[4,3-c]pyridin-1-yl)piperidin-1-yl)acetyl)-2-(2,6-dioxopiperidin-3-yl)-5,6,7,8-tetrahydro-1H-pyrrolo[3,4-g]isoquinoline-1,3(2H)-dione] |
| > 50 | < 0.1 | < 10 | < 1 | CC(=O)N1CCc2c(c(N3CCCc4cc(-c5cnn(C)c5)c(C(F)F)cc43)nn2C2CCN(C(=O)CCN3CCc4cc5c(cc4C3)C(=O)N(C3CCC(=O)NC3=O)C5=O)CC2)C1 (stereo not shown) [CP-003, 6-(3-(4-(5-acetyl-3-(7-(difluoromethyl)-6-(1-methyl-1H-pyrazol-4-yl)-3,4-dihydroquinolin-1(2H)-yl)-4,5,6,7-tetrahydro-1H-pyrazolo[4,3-c]pyridin-1-yl)piperidin-1-yl)-3-oxopropyl)-2-(2,6-dioxopiperidin-3-yl)-5,6,7,8-tetrahydro-1H-pyrrolo[3,4-g]isoquinoline-1,3(2H)-dione] |
| > 70 | < 0.01 | < 1 | < 1 | CC(=O)N1CCc2c(c(N3CCCc4cc(-c5cnn(C)c5)c(C(F)F)cc43)nn2C2CCN(C(=O)CCCN3CCc4cc5c(cc4C3)C(=O)N(C3CCC(=O)NC3=O)C5=O)CC2)C1 (stereo not shown) [CP-004, 6-(4-(4-(5-acetyl-3-(7-(difluoromethyl)-6-(1-methyl-1H-pyrazol-4-yl)-3,4-dihydroquinolin-1(2H)-yl)-4,5,6,7-tetrahydro-1H-pyrazolo[4,3-c]pyridin-1-yl)piperidin-1-yl)-4-oxobutyl)-2-(2,6-dioxopiperidin-3-yl)-5,6,7,8-tetrahydro-1H-pyrrolo[3,4-g]isoquinoline-1,3(2H)-dione] |
| > 70 | < 0.01 | < 10 | < 1 | CC(=O)N1CCc2c(c(N3CCCc4cc(-c5cnn(C)c5)c(C(F)F)cc43)nn2C2CCN(CC(=O)N3Cc4cc5c(cc4C3)C(=O)N(C3CCC(=O)NC3=O)C5=O)CC2)C1 (stereo not shown) [CP-006, 6-(2-(4-(5-acetyl-3-(7-(difluoromethyl)-6-(1-methyl-1H-pyrazol-4-yl)-3,4-dihydroquinolin-1(2H)-yl)-4,5,6,7-tetrahydro-1H-pyrazolo[4,3-c]pyridin-1-yl)piperidin-1-yl)acetyl)-2-(2,6-dioxopiperidin-3-yl)-6,7-dihydropyrrolo[3,4-f]isoindole-1,3(2H,5H)-dione] |
| > 70 | < 0.1 | < 1 | < 1 | CC(=O)N1CCc2c(c(N3CCCc4cc(-c5cnn(C)c5)c(C(F)F)cc43)nn2C2CCN(C(=O)CCN3Cc4cc5c(cc4C3)C(=O)N(C3CCC(=O)NC3=O)C5=O)CC2)C1 (stereo not shown) [CP-007, 6-(3-(4-(5-acetyl-3-(7-(difluoromethyl)-6-(1-methyl-1H-pyrazol-4-yl)-3,4-dihydroquinolin-1(2H)-yl)-4,5,6,7-tetrahydro-1H-pyrazolo[4,3-c]pyridin-1-yl)piperidin-1-yl)-3-oxopropyl)-2-(2,6-dioxopiperidin-3-yl)-6,7-dihydropyrrolo[3,4-f]isoindole-1,3(2H,5H)-dione] |
| > 70 | < 0.01 | < 0.1 | < 0.1 | CC(=O)N1CCc2c(c(N3CCCc4cc(-c5cnn(C)c5)c(C(F)F)cc43)nn2C2CCN(C(=O)CCCN3Cc4cc5c(cc4C3)C(=O)N(C3CCC(=O)NC3=O)C5=O)CC2)C1 (stereo not shown) [CP-008, 6-(4-(4-(5-acetyl-3-(7-(difluoromethyl)-6-(1-methyl-1H-pyrazol-4-yl)-3,4-dihydroquinolin-1(2H)-yl)-4,5,6,7-tetrahydro-1H-pyrazolo[4,3-c]pyridin-1-yl)piperidin-1-yl)-4-oxobutyl)-2-(2,6-dioxopiperidin-3-yl)-6,7-dihydropyrrolo[3,4-f]isoindole-1,3(2H,5H)-dione] |
| > 90 | < 0.01 | < 1 | < 0.1 | CC(=O)N1CCc2c(c(N3CCCc4ccc(C(F)F)cc43)nn2C2CCN(C(=O)CN3CCc4cc5c(cc4C3)C(=O)N(C3CCC(=O)NC3=O)C5=O)CC2)C1 (stereo not shown) [CP-009, 6-(2-(4-(5-acetyl-3-(7-(difluoromethyl)-3,4-dihydroquinolin-1(2H)-yl)-4,5,6,7-tetrahydro-1H-pyrazolo[4,3-c]pyridin-1-yl)piperidin-1-yl)-2-oxoethyl)-2-(2,6-dioxopiperidin-3-yl)-5,6,7,8-tetrahydro-1H-pyrrolo[3,4-g]isoquinoline-1,3(2H)-dione] |
| > 70 | < 0.1 | > 10 | < 1 | CC(=O)N1CCc2c(c(N3CCCc4ccc(C(F)F)cc43)nn2C2CCN(C(=O)CN3Cc4cc5c(cc4C3)C(=O)N(C3CCC(=O)NC3=O)C5=O)CC2)C1 (stereo not shown) [CP-010, 6-(2-(4-(5-acetyl-3-(7-(difluoromethyl)-3,4-dihydroquinolin-1(2H)-yl)-4,5,6,7-tetrahydro-1H-pyrazolo[4,3-c]pyridin-1-yl)piperidin-1-yl)-2-oxoethyl)-2-(2,6-dioxopiperidin-3-yl)-6,7-dihydropyrrolo[3,4-f]isoindole-1,3(2H,5H)-dione] |
| < 50 | > 1 | < 10 | < 1 | CC(=O)N1CCc2c(c(N3CCCc4cc(-c5cnn(C)c5)c(C(F)F)cc43)nn2C2CCC(CC(=O)N3Cc4cc5c(cc4C3)C(=O)N(C3CCC(=O)NC3=O)C5=O)CC2)C1 (stereo not shown) [CP-027, 6-(2-(4-(5-acetyl-3-(7-(difluoromethyl)-6-(1-methyl-1H-pyrazol-4-yl)-3,4-dihydroquinolin-1(2H)-yl)-4,5,6,7-tetrahydro-1H-pyrazolo[4,3-c]pyridin-1-yl)cyclohexyl)acetyl)-2-(2,6-dioxopiperidin-3-yl)-6,7-dihydropyrrolo[3,4-f]isoindole-1,3(2H,5H)-dione] |
| > 50 | < 0.01 | < 1 | < 0.1 | CC(=O)N1CCc2c(c(N3CCCc4cc(-c5cnn(C)c5)c(C(F)F)cc43)nn2C2CCC(CC(=O)N3CCc4cc5c(cc4C3)C(=O)N(C3CCC(=O)NC3=O)C5=O)CC2)C1 (stereo not shown) [CP-028, 6-(2-(4-(5-acetyl-3-(7-(difluoromethyl)-6-(1-methyl-1H-pyrazol-4-yl)-3,4-dihydroquinolin-1(2H)-yl)-4,5,6,7-tetrahydro-1H-pyrazolo[4,3-c]pyridin-1-yl)cyclohexyl)acetyl)-2-(2,6-dioxopiperidin-3-yl)-5,6,7,8-tetrahydro-1H-pyrrolo[3,4-g]isoquinoline-1,3(2H)-dione] |
| > 50 | < 0.1 | < 10 | < 10 | CC(=O)N1CCc2c(c(N3CCCc4cc(-c5cnn(C)c5)c(C(F)F)cc43)nn2C[C@H]2CC[C@H](C(=O)N3Cc4cc5c(cc4C3)C(=O)N(C3CCC(=O)NC3=O)C5=O)CC2)C1 (stereo partly drawn) [CP-029, trans-6-(4-((5-acetyl-3-(7-(difluoromethyl)-6-(1-methyl-1H-pyrazol-4-yl)-3,4-dihydroquinolin-1(2H)-yl)-4,5,6,7-tetrahydro-1H-pyrazolo[4,3-c]pyridin-1-yl)methyl)cylcohexane-1-carbonyl)-2-(2,6-dioxopiperidin-3-yl)-6,7-dihydropyrrolo[3,4-f]isoindole-1,3(2H,5H)-dione] |
| < 50 | > 1 | < 10 | < 1 | CC(=O)N1CCc2c(c(N3CCCc4cc(-c5cnn(C)c5)c(C(F)F)cc43)nn2C[C@H]2CC[C@H](C(=O)N3CCc4cc5c(cc4C3)C(=O)N(C3CCC(=O)NC3=O)C5=O)CC2)C1 (stereo partly drawn) [CP-030, trans-6-(4-((5-acetyl-3-(7-(difluoromethyl)-6-(1-methyl-1H-pyrazol-4-yl)-3,4-dihydroquinolin-1(2H)-yl)-4,5,6,7-tetrahydro-1H-pyrazolo[4,3-c]pyridin-1-yl)methyl)cyclohexane-1-carbonyl)-2-(2,6-dioxopiperidin-3-yl)-5,6,7,8-tetrahydro-1H-pyrrolo[3,4-g]isoquinoline-1,3(2H)-dione] |
